Data on 16 compounds can be found in US7071219B2, “Mono-acylated o-phenylendiamines derivatives” (Hoffmann-La Roche Inc., priority 2004, dated 2006).

The structures appear in SMILES notation.

This test concerns histone deacetylase (HDAC). Put plainly: cellular acetylation assay (histone acetylation ELISA in PC3 cells). To be noted: compound 1 μM, 24 h incubation, ELISA with antibodies against acetylated histone H3 or H4. In kind it is cell-based, human. The protocol:
In this assay, acetylation of histones is monitored in PC3 cells. High acetylation correlates with inhibition of histone deacetylase by compounds. Cell viability is monitored in parallel to estimate the cytotoxicity of compounds.
PC3 cells, a human prostate carcinoma cell line, are seeded as 1800 cells per well of a 384-well microtiterplate in RPMI 1640 (including 5% FCS, 2 mM glutamine and pen/strep).
After 48 h at 37° C. pre-diluted compounds are added to a final concentration of 1 uM. Compounds are pre-diluted in dimethyl sulfoxide (DMSO) resulting in a final concentration of DMSO of 0.5% per well.
After 24 h incubation cell viability is determined by adding cell proliferation reagent WST-1 (Roche Molecular Biochemicals). Another 60 min later the optical density (OD) is measured (450 nm versus 690 nm).
After measurement the cell layer is prepared for the ELISA reaction. Medium is aspirated and cells are fixed in ethanol at −20° C. for 60 min. After washing with PBS/Tween the blocking solution (PBS/5% FCS/Tween) is added and the cell layer is washed again. Antibodies against acetylated histone H3 or H4 (rabbit polyklonal IgG, Upstate Biotechnologie) are added at a dilution of 1:200 for 60 min at 37° C. As a second antibody goat anti rabbit IgG (H+L) humanIgG adsorbed-HRP conjugate (Dako) is used (1:2000 diluted). Cells are washed 3 times and the peroxidase substrate ABTS is allowed to react for 30–60 min at 37° C. The OD is measured at 405 nm.
The percentage of acetylation is calculated after substraction of blank O.D.s: […]
A general note: In an ELISA, binding on a coated surface is turned into a signal by an enzyme label.
On to `CCCC(C)NC(=O)c1ccc(C(=O)Nc2ccccc2N)s1` (stereo not shown) [Example 1-1, Thiophene-2,5-dicarboxylic acid 2-[(2-amino-phenyl)-amide]5-[(1-methyl-butyl)-amide]], for which the “cell acetylation (PC3, 1 μM) [% of control]” value was 137.2 % of control.
As for `CCCCN(CCCC)CCCNC(=O)c1ccc(C(=O)Nc2ccccc2N)s1` [Example 1-4, Thiophene-2,5-dicarboxylic acid 2-[(2-amino-phenyl)-amide]5-[(3-dibutylamino-propyl)-amide]], the “cell acetylation (PC3, 1 μM) [% of control]” value is 195.7 % of control.
Take `CCCCCC(C)NC(=O)c1ccc(C(=O)Nc2ccccc2N)s1` (stereo not shown) [Example 1-6, Thiophene-2,5-dicarboxylic acid 2-[(2-amino-phenyl)-amide]5-[(1-methyl-hexyl)-amide]]: the “cell acetylation (PC3, 1 μM) [% of control]” value is 122.9 % of control.
For `CN(C)CC(C)(C)CNC(=O)c1ccc(C(=O)Nc2ccccc2N)s1` [Example 1-17, Thiophene-2,5-dicarboxylic acid 2-[(2-amino-phenyl)-amide]5-[(3-dimethylamino-2,2-dimethylpropyl)-amide]], the “cell acetylation (PC3, 1 μM) [% of control]” value was 149.8 % of control.
In the case of `CN(C)CCNC(=O)c1ccc(C(=O)Nc2ccccc2N)s1` [Example 1-18, Thiophene-2,5-dicarboxylic acid 2-[(2-amino-phenyl)-amide]5-[(2-dimethylaminoethyl)-amide]] it was 233.9 % of control.
Regarding `CCCCN(C)C(=O)c1ccc(C(=O)Nc2ccccc2N)s1` [Example 1-19, thiophene-2,5-dicarboxylic acid 2-[(2-amino-phenyl)-amide]5-(butyl-methyl-amide)], the “cell acetylation (PC3, 1 μM) [% of control]” value is 118.8 % of control.
With `CCC(C)NC(=O)c1ccc(C(=O)Nc2ccccc2N)s1` (stereo not shown) [Example 1-24, Thiophene-2,5-dicarboxylic acid 2-[(2-amino-phenyl)-amide]5-sec-butylamide], the “cell acetylation (PC3, 1 μM) [% of control]” value was 211.2 % of control.
`CCC(C)CNC(=O)c1ccc(C(=O)Nc2ccccc2N)s1` (stereo not shown) [Example 1-35, Thiophene-2,5-dicarboxylic acid 2-[(2-amino-phenyl)-amide]5-[(2-methyl-butyl)-amide]]: the “cell acetylation (PC3, 1 μM) [% of control]” value is listed as 135.4 % of control.
For `NC(=O)c1ccc(C(=O)Nc2ccccc2N)s1` [Example 1-44, thiophene-2,5-dicarboxylic acid 2-amide 5-[(2-amino-phenyl)-amide]], the “cell acetylation (PC3, 1 μM) [% of control]” value is 185.6 % of control.
With `CC(C)N(CCNC(=O)c1ccc(C(=O)Nc2ccccc2N)cn1)C(C)C` [Example 2-1, Pyridine-2,5-dicarboxylic acid 5-[(2-amino-phenyl)-amide]2-[(2-diisopropylamino-ethyl)-amide]], the “cell acetylation (PC3, 1 μM) [% of control]” value is 206.6 % of control.
Regarding `CC(C)N(CCNC(=O)c1ccc(C(=O)Nc2ccccc2N)nc1)C(C)C` [Example 3-1, pyridine-2,5-dicarboxylic acid 2-[(2-amino-phenyl)-amide]5-[(2-diisopropylamino-ethyl)-amide]], the “cell acetylation (PC3, 1 μM) [% of control]” value is 244.8 % of control.
Take `CN(C)CCNC(=O)c1ccc(C(=O)Nc2ccccc2N)nc1` [Example 3-5, pyridine-2,5-dicarboxylic acid 2-[(2-amino-phenyl)-amide]5-[(2-dimethylamino-ethyl)-amide]]: the “cell acetylation (PC3, 1 μM) [% of control]” value is 154.6 % of control.
In the case of `CCOC(=O)CC(C)NC(=O)c1ccc(C(=O)Nc2ccccc2N)nc1` (stereo not shown) [Example 3-9, 3-{[6-(2-amino-phenylcarbamoyl)-pyridine-3-carbonyl]-amino}-butyric acid ethyl ester] it was 211.6 % of control; in that of `CCCCN(CCCC)CCCNC(=O)c1ccc(C(=O)Nc2ccccc2N)nc1` [Example 3-20, pyridine-2,5-dicarboxylic acid 2-[(2-amino-phenyl)-amide]5-[(3-dibutylamino-propyl)-amide]], 223.8 % of control; in that of `CC(C)N(CCNC(=O)c1ccc(C(=O)Nc2ccccc2N)cc1)C(C)C` [Example 4-1, N-(2-amino-phenyl)-N′-(2-diisopropylamino-ethyl)-terephthalamide], 399.3 % of control.
In the case of `CC(=O)Nc1ccc(C(=O)Nc2ccccc2N)cc1` [Reference Compound, 4-acetylamino-N-(2-aminophenyl)-benzamide, reference compound], the “cell acetylation (PC3, 1 μM) [% of control]” value was 152 % of control.
